Test results published in publication PMC7756582, “Prodrugs of γ‐Alkyl‐Modified Nucleoside Triphosphates: Improved Inhibition of HIV Reverse Transcriptase” (Angewandte Chemie (International Ed. in English), 2020).

Molecular target: T1, human DNA polymerase α (Homo sapiens, UniProt P09884)
T1 construct: purchased Chimerx
T1 sequence (P09884 1-1462): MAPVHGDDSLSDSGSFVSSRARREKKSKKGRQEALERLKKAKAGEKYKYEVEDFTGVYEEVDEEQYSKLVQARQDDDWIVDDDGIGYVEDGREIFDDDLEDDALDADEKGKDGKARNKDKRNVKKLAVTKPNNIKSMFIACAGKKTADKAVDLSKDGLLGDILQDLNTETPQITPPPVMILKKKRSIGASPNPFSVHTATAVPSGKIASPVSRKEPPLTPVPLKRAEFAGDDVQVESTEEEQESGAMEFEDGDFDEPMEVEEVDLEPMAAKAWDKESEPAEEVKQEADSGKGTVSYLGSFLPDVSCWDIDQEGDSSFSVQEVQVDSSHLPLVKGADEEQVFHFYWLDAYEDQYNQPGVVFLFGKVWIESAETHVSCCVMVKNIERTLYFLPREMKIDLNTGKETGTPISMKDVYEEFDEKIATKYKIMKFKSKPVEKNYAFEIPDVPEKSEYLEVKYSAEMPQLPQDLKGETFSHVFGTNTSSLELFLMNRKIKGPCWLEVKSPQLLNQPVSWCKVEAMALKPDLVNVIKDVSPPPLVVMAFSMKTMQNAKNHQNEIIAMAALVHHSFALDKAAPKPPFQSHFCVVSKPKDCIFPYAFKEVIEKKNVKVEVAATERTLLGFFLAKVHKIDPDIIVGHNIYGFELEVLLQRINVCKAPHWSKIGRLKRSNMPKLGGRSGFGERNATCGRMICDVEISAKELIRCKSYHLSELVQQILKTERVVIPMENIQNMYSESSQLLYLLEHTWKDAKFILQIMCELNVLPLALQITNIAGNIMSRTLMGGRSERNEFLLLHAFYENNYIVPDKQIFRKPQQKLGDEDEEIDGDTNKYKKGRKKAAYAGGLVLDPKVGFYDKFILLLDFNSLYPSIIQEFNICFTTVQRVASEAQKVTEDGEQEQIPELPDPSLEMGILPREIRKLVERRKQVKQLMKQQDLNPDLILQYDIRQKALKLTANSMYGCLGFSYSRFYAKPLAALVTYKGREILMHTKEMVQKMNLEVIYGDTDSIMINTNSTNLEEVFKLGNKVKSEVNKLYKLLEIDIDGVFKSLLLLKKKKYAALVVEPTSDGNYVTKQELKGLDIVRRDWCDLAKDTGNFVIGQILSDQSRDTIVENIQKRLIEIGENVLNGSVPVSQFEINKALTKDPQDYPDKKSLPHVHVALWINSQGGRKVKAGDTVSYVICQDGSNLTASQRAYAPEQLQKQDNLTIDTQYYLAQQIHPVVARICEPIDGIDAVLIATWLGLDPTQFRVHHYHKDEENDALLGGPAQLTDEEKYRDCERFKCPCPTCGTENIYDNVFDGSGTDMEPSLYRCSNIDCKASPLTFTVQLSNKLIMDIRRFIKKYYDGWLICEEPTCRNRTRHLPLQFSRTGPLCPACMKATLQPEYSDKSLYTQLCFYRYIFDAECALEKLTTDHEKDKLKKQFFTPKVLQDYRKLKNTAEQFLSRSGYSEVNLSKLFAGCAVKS
Assay: Primer extension assay with human DNA polymerase α
Type: biochemical
Details: dNTPs 250 μM, Pol α 4 U, 60 min
Protocol: Two different set‐ups have been used. First, a mixture of dATP, dCTP, dGTP, and γ‐alkyl‐TTP (N*) or ‐d4TTP (T*) was used as a mixture. The results obtained from these experiments were compared to those in which just γ‐alkyl‐TTP (N) or d4TTP (T) was used. In each experiment a primer extension without added polymerase (negative control, ‐ lane) and an experiment in which all four canonical NTPs were added (positive control, +lane) were used as controls.
Anti-HIV activity assay: Inhibition of HIV-1(IIIB)- and HIV-2(ROD)-induced cytopathicity in wild-type CEM/0 and thymidine kinase-deficient CEM/TK- cell cultures was measured in microtiter 96-well plates containing ~3·105 CEM cells/mL infected with 100 CCID50 of HIV per milliliter and containing appropriate dilutions of the test compounds. After 4−5 days of incubation at 37 °C in a CO2-controlled humidified atmosphere, CEM giant (syncytium) cell formation was examined microscopically. The EC50 (50% effective concentration) was defined as the compound concentration required to inhibit HIV-induced giant cell formation by 50%. […]
2) For HIV- RT assay: The final assay solution (10 µL) consists of 50 mM Tris-HCl (pH 8.6 at 22 °C), 10 mM MgCl2, 40mM KCl, dNTPs 66 µM, HIV RT 6 U, Hybrid 0.32 µM in a reaction volume of 10 µL, incubated 37 °C for 15 min, 80 °C for 3 min; 50 mA, 45w for 4 h. […] The result was visualized by fluorescence imaging. […]

## Cc1cn(C2C=CC(COP(=O)(O)OP(=O)(O)OP(=O)(O)O)O2)c(=O)[nH]c1=O (stereo not shown) [2 t, d4TTP, reference compound]
  primer extension by DNA polymerase α (substrate properties): substrate
